Values of other authors, collected in patent US20220333169A1, “Polygenic Score for Cardiac Heart Failure” (Henry Ford Health System, priority 2019, published 2022).

System: heart failure patients
Conditions: one randomized clinical trial

Q: Which “95% confidence interval for change in left ventricular ejection fraction (LVEF)” value does the source give for `COc1ccccc1OCCNCC(O)COc1cccc2[nH]c3ccccc3c12` (stereo not shown) [carvedilol] here?
A: −11.1 to +32.9
